Here are results for 15 compounds from paper PMC9463489 (Journal of Pharmaceutical Analysis, 2022).

Several values for one entry are separate records, joined by “and”; a condition that tells them apart may be missing. Equal values may be shown once. A value given as a limit tells only on which side of the number the result lay.

One experiment has as its system α-glucosidase. As to conditions: ref [50], [51], [52]; cited from earlier work.
Experiment [1] has as its target T1, human pancreatic lipase (hPL) (Homo sapiens, UniProt P16233).
T1 sequence (P16233 17-465): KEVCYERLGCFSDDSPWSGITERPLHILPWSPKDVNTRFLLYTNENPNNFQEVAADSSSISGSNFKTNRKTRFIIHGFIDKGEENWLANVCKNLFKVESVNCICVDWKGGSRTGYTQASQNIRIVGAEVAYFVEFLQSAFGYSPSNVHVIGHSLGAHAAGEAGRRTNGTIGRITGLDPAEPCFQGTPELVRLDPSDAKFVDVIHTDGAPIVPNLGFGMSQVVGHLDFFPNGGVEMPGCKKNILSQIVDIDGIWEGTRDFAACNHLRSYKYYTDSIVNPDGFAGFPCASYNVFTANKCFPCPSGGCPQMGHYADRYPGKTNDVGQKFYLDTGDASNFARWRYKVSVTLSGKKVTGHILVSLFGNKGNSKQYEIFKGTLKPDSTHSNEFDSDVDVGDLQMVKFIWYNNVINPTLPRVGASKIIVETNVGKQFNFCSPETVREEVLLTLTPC
Put plainly: fluorescence-based hPL inhibition assay. In kind it is biochemical. As to conditions: 4-MUO 5 μM, 37 °C, 20 min; for IC50: pIC50, hPL-catalyzed 4-MUO hydrolysis; for pIC50: hPL-catalyzed 4-MUO hydrolysis.

In experiment [2] the target is T1, human pancreatic lipase (hPL). Put plainly: inhibition kinetics against hPL-catalyzed 4-MUO hydrolysis. In kind it is biochemical. The settings on record: for Inhibition mode: Lineweaver-Burk and secondary plots.

Usually IC50 stands for the concentration at which inhibition is half-maximal. A lower IC50 goes with greater potency. Take `O=C(O[C@@H]1Cc2c(O)cc(O)cc2O[C@@H]1c1ccc(O)c(O)c1)c1cc(O)c(O)c(O)c1` [ECG, epicatechin gallate]: the “inhibitory effects against α-glucosidase” value with α-glucosidase is given as “strong inhibitory effects”. Also, the IC50 in experiment [1] is 162 nM. In the case of `Oc1cc(O)c2c(c1)O[C@H](c1ccc(O)c(O)c1)[C@H](O)C2` [Epicatechin, epicatechin], in experiment [1], the IC50 was over 100000 nM. Take `O=C1C[C@@H](c2ccc(O)c(O)c2)Oc2cc(O)cc(O)c21` [Eriodictyol, eriodictyol]: the IC50 in experiment [1] is over 100000 nM. Usually pIC50 stands for the IC50 on a negative log10 scale, so that one unit is a factor of ten. A high value points to a small IC50. With `COc1cc(/C=C/C(=O)O)ccc1O` [Ferulic acid, ferulic acid], in experiment [1], the pIC50 is under 4. In the case of `O=c1c(O)c(-c2ccc(O)cc2)oc2cc(O)cc(O)c12` [Kaempferol, kaempferol], in experiment [1], it took 27500 nM to reach half-maximal inhibition (IC50). Consider `O=c1cc(-c2ccc(O)c(O)c2)oc2cc(O)cc(O)c12` [Luteolin, luteolin], for which, in the experiment with α-glucosidase, the “inhibitory effects against α-glucosidase” value was “strong inhibitory effects”. The compound also showed an IC50 in experiment [1] of 776 nM. On to `O=c1cc(-c2ccc(O)c(O)c2)oc2cc(O[C@@H]3O[C@H](CO)[C@@H](O)[C@H](O)[C@H]3O)cc(O)c12` [Luteolin-7-O-β-D-glucoside, luteolin-7-O-β-D-glucoside], for which, in experiment [1], the pIC50 is under 4.

As a reminder, the Ki is a dissociation constant, usually derived from enzyme kinetics or from competition with a known ligand. With `O=C(OC[C@H]1O[C@@H](OC(=O)c2cc(O)c(O)c(O)c2)[C@H](OC(=O)c2cc(O)c(O)c(O)c2)[C@@H](OC(=O)c2cc(O)c(O)c(O)c2)[C@@H]1OC(=O)c1cc(O)c(O)c(O)c1)c1cc(O)c(O)c(O)c1` [PGG, 1,2,3,4,6-penta-O-galloyl-β-D-glucopyranose], the Inhibition mode entry in experiment [2] was “non-competitive”. Besides, the Ki in experiment [2] (inhibition constant (Ki)) was 12 nM and < 100 nM. Moreover, in experiment [1], 25.7 nM corresponded to half-maximal inhibition (IC50).

On to `O=c1c(O)c(-c2ccc(O)c(O)c2)oc2cc(O)cc(O)c12` [Quercetin, quercetin], for which the “inhibitory effects against α-glucosidase” value in the experiment with α-glucosidase is “strong inhibitory effects”. Regarding `O=c1c(O[C@@H]2O[C@H](CO)[C@@H](O)[C@H](O)[C@H]2O)c(-c2ccc(O)c(O)c2)oc2cc(O)cc(O)c12` [Quercetin-3-O-glucoside, quercetin-3-O-glucoside], in experiment [1], the IC50 is over 100000 nM. `O=C(O)[C@H]1O[C@@H](Oc2c(-c3ccc(O)c(O)c3)oc3cc(O)cc(O)c3c2=O)[C@H](O)[C@@H](O)[C@@H]1O` [Quercetin-3-O-glucuronide, quercetin-3-O-glucuronide] registered a negative logarithm of the IC50 (pIC50) in experiment [1] of under 4. In experiment [1], `C[C@@H]1O[C@@H](Oc2c(-c3ccc(O)c(O)c3)oc3cc(O)cc(O)c3c2=O)[C@H](O)[C@H](O)[C@H]1O` [Quercitrin, quercitrin] showed an IC50 of over 100000 nM. `C[C@@H]1O[C@@H](Oc2cc(O)c3c(=O)c(O)c(-c4ccc(O)cc4)oc3c2O)[C@H](O)[C@H](O)[C@H]1O` [Rhodionin, rhodionin] came in with a half-inhibitory concentration (IC50) in experiment [1] of over 100000 nM. The compound `O=C(O)/C=C/c1ccc(O)cc1` [p-coumaric acid] had an IC50 in experiment [1] of over 100000 nM. catechin gallate [CG]: the Inhibition mode result in experiment [2] is “non-competitive”.
